Measurements as given in US11230555B2, “Bicyclic RORγ modulators” (Escalier Biosciences B.V., priority 2018, dated 2022).

Molecular target: T1, RORγt (Homo sapiens, UniProt P51449)
T1 construct: purchased reporter-cell kit
T1 sequence (P51449 269-508 limits assumed): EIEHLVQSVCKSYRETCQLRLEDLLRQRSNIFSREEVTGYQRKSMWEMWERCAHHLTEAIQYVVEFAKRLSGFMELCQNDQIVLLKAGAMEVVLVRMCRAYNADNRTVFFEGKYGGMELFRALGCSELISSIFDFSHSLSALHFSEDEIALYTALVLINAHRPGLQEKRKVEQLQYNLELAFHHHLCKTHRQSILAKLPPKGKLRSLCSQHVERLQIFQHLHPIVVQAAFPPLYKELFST
Experiment: Gal4 ligand binding assay (RORγt Gal fusion reporter assay)
Format: cell-based
Conditions: inverse agonists, luciferase reporter, 24h
Method: Compounds of the present invention were tested in a human RORγ ligand binding assay using a commercially available cell based ligand binding reporter assay in 96-well format (Cat #IB04001, INDIGO Biosciences, State College, Pa.). The N-terminal DNA binding domains (DBD) of the native RORγ and RORγt receptors have been substituted with that of the yeast GAL4-DBD and stably transfected in […] cells that also stably express luciferase under the regulation by upstream activation sequence of yeast Gal4. These cells constitutively express high level RORγ activity due to binding of endogenous co-factors. Both agonist and inverse agonist activity can be detected. The assay was performed according to kit manufacturer's instructions as follows. 10 mM compound stocks were diluted serially 1:3 with DMSO and further diluted with provided media to generate 10 titration points from 60 μM to 3 nM. These treatment conditions were added to the plates as 2× media in 100 μL volume. Each plate includes a positive control with 10 titration points as well as 6negative control wells with vehicle only, with final DMSO concentration of 0.2%. RORγ reporter cells were rapidly thawed and added to the plates in 100 μL volume. The plates were incubated for 24h in a 37° C. humidified 5% CO2incubator. Media was removed before the addition of room temperature luciferous detection substrate. After 5 minute incubation, relative light units (RLUs) were quantified using a plate reading luminometer. Data was normalized to positive control wells with only […]. Before establishing internal controls, ursolic acid was used as control.

Compound | IC50
Cc1cc(C(O)(C(F)(F)F)C(F)(F)F)ccc1-c1ccc(CN2CC3CCC(C2)N3S(C)(=O)=O)cc1C(C)C [Example 35, 1,1,1,3,3,3-hexafluoro-2-(2′-isopropyl-2-methyl-4′-((8-(methylsulfonyl)-3,8-diazabicyclo[3.2.1]octan-3-yl)methyl)-[1,1′-biphenyl]-4-yl)propan-2-ol] | 50 to 250 nM
CCCS(=O)(=O)N1C2CCC1CN(Cc1ccc(-c3ccc(C(O)(C(F)(F)F)C(F)(F)F)cc3)c(C)c1)C2 [Example 68, 1,1,1,3,3,3-hexafluoro-2-(2′-methyl-4′-((8-(propylsulfonyl)-3,8-diazabicyclo[3.2.1]octan-3-yl)methyl)-[1,1′-biphenyl]-4-yl)propan-2-ol] | > 250 nM
Cc1cc(CN2CC3CCC(C2)N3Cc2ccnnc2)ccc1-c1ccc(C(O)(C(F)(F)F)C(F)(F)F)cc1 [Example 51, 1,1,1,3,3,3-hexafluoro-2-(2′-methyl-4′-((8-(pyridazin-4-ylmethyl)-3,8-diazabicyclo[3.2.1]octan-3-yl)methyl)-[1,1′-biphenyl]-4-yl)propan-2-ol] | < 50 nM
CCc1c(-c2ccc(C(O)(C(F)(F)F)C(F)(F)F)cc2F)cc(F)c(CN2CC3CCC(C2)N3S(C)(=O)=O)c1F [Example 13, 2-(2′-ethyl-2,3′,5′-trifluoro-4′-((8-(methylsulfonyl)-3,8-diazabicyclo[3.2.1]octan-3-yl)methyl)-[1,1′-biphenyl]-4-yl)-1,1,1,3,3,3-hexafluoropropan-2-ol] | < 50 nM
CCc1cc(CN2CC3COCC(C2)N3S(C)(=O)=O)ccc1-c1ccc(C(O)(C(F)(F)F)C(F)(F)F)cc1 [Example 12, 2-(2′-ethyl-4′-((9-(methylsulfonyl)-3-oxa-7,9-diazabicyclo[3.3.1]nonan-7-yl)methyl)-[1,1′-biphenyl]-4-yl)-1,1,1,3,3,3-hexafluoropropan-2-ol] | 50 to 250 nM
CCc1cc(CN2CC3CCC(C2)N3S(C)(=O)=O)ccc1-c1ccc(C(O)(C(F)(F)F)C(F)(F)F)cc1Cl [Example 27, 2-(2-chloro-2′-ethyl-4′-((8-(methylsulfonyl)-3,8-diazabicyclo[3.2.1]octan-3-yl)methyl)-[1,1′-biphenyl]-4-yl)-1,1,1,3,3,3-hexafluoropropan-2-ol] | < 50 nM
CCc1cc(CN2CC3CCC(C2)N3S(C)(=O)=O)cc(F)c1-c1ccc(C(O)(C(F)(F)F)C(F)(F)F)cc1 [Example 16, 2-(2′-ethyl-6′-fluoro-4′-((8-(methylsulfonyl)-3,8-diazabicyclo[3.2.1]octan-3-yl)methyl)-[1,1′-biphenyl]-4-yl)-1,1,1,3,3,3-hexafluoropropan-2-ol] | < 50 nM
CCc1cc(CN2CC3CCC(C2)N3Cc2ccncc2)ccc1-c1ccc(C(O)(C(F)(F)F)C(F)(F)F)cc1 [Example 53, 2-(2′-ethyl-4′-((8-(pyridin-4-ylmethyl)-3,8-diazabicyclo[3.2.1]octan-3-yl)methyl)-[1,1′-biphenyl]-4-yl)-1,1,1,3,3,3-hexafluoropropan-2-ol] | < 50 nM
CCc1cc(CN2CC3CCC(C2)N3S(C)(=O)=O)ccc1-c1ccc(C(O)(C(F)(F)F)C(F)(F)F)cc1 [Example 52, 2-(2′-ethyl-4′-((8-(methylsulfonyl)-3,8-diazabicyclo[3.2.1]octan-3-yl)methyl)-[1,1′-biphenyl]-4-yl)-1,1,1,3,3,3-hexafluoropropan-2-ol] | < 50 nM
CS(=O)(=O)N1C2CCC1CN(Cc1ccc(-c3ccc(C(O)(C(F)(F)F)C(F)(F)F)cc3)c(C(F)(F)F)c1)C2 [Example 57, 1,1,1,3,3,3-hexafluoro-2-(4′-((8-(methylsulfonyl)-3,8-diazabicyclo[3.2.1]octan-3-yl)methyl)-2′-(trifluoromethyl)-[1,1′-biphenyl]-4-yl)propan-2-ol] | 50 to 250 nM
Cc1cc(CN2CC3CCC(C2)N3Cc2ccnc(O)c2)ccc1-c1ccc(C(O)(C(F)(F)F)C(F)(F)F)cc1 [Example 70, 4-((3-((4′-(1,1,1,3,3,3-hexafluoro-2-hydroxypropan-2-yl)-2-methyl-[1,1′-biphenyl]-4-yl)methyl)-3,8-diazabicyclo[3.2.1]octan-8-yl)methyl)pyridin-2-ol] | > 250 nM
Cc1cc(CN2CC3CCC(C2)N3C(=O)c2ccncc2)ccc1-c1ccc(C(O)(C(F)(F)F)C(F)(F)F)cc1 [Example 75, (3-((4′-(1,1,1,3,3,3-hexafluoro-2-hydroxypropan-2-yl)-2-methyl-[1,1′-biphenyl]-4-yl)methyl)-3,8-diazabicyclo[3.2.1]octan-8-yl)(pyridin-4-yl)methanone] | 50 to 250 nM
Cc1cc(CN2CC3CCC2CN3S(C)(=O)=O)ccc1-c1ccc(C(O)(C(F)(F)F)C(F)(F)F)cc1 (stereo not drawn) [Example 50, 1,1,1,3,3,3-hexafluoro-2-(2′-methyl-4′-((5-(methylsulfonyl)-2,5-diazabicyclo[2.2.2]octan-2-yl)methyl)-[1,1′-biphenyl]-4-yl)propan-2-ol] | > 250 nM
CCc1cc(CN2CC3CCC(C2)N3S(C)(=O)=O)ncc1-c1ccc(C(O)(C(F)(F)F)C(F)(F)F)cc1Cl [Example 4, 2-(3-chloro-4-(4-ethyl-6-((8-(methylsulfonyl)-3,8-diazabicyclo[3.2.1]octan-3-yl)methyl)pyridin-3-yl)phenyl)-1,1,1,3,3,3-hexafluoropropan-2-ol] | 50 to 250 nM
CC(C)c1cc(CN2CC3CCC(C2)N3S(C)(=O)=O)c(F)cc1-c1ccc(C(O)(C(F)(F)F)C(F)(F)F)cc1Cl [Example 15, 2-(2-chloro-5′-fluoro-2′-isopropyl-4′-((8-(methylsulfonyl)-3,8-diazabicyclo[3.2.1]octan-3-yl)methyl)-[1,1′-biphenyl]-4-yl)-1,1,1,3,3,3-hexafluoropropan-2-ol] | < 50 nM
Cc1cc(CN2CC3CCC(C2)N3S(C)(=O)=O)ccc1-c1ccc(C(O)(C(F)(F)F)C(F)(F)F)cc1 [Example 73, 1,1,1,3,3,3-hexafluoro-2-(2′-methyl-4′-((8-(methylsulfonyl)-3,8-diazabicyclo[3.2.1]octan-3-yl)methyl)-[1,1′-biphenyl]-4-yl)propan-2-ol] | 50 to 250 nM
CCc1cc(CN2CC3CCC(C2)N3S(C)(=O)=O)cc(F)c1-c1ccc(C(O)(C(F)(F)F)C(F)(F)F)cc1Cl [Example 18, 2-(2-chloro-2′-ethyl-6′-fluoro-4′-((8-(methylsulfonyl)-3,8-diazabicyclo[3.2.1]octan-3-yl)methyl)-[1,1′-biphenyl]-4-yl)-1,1,1,3,3,3-hexafluoropropan-2-ol] | < 50 nM
Cc1cc(CN2CC3CCC(C2)N3Cc2ccc(F)cc2)ccc1-c1ccc(C(O)(C(F)(F)F)C(F)(F)F)cc1 [Example 77, 1,1,1,3,3,3-hexafluoro-2-(4′-((8-(4-fluorobenzyl)-3,8-diazabicyclo[3.2.1]octan-3-yl)methyl)-2′-methyl-[1,1'-biphenyl]-4-yl)propan-2-ol] | > 250 nM
CCc1cc(CN2CC3CCC(C2)N3S(C)(=O)=O)ncc1-c1ccc(C(O)(C(F)(F)F)C(F)(F)F)cc1C [Example 3, 2-(4-(4-ethyl-6-((8-(methylsulfonyl)-3,8-diazabicyclo[3.2.1]octan-3-yl)methyl)pyridin-3-yl)-3-methylphenyl)-1,1,1,3,3,3-hexafluoropropan-2-ol] | 50 to 250 nM
OC(c1ccc(-c2ccc(CN3CC4CCC(C3)N4Cc3ccncc3)cc2Br)cc1)(C(F)(F)F)C(F)(F)F [Example 41, 2-(2′-bromo-4′-((8-(pyridin-4-ylmethyl)-3,8-diazabicyclo[3.2.1]octan-3-yl)methyl)-[1,1′-biphenyl]-4-yl)-1,1,1,3,3,3-hexafluoropropan-2-ol] | < 50 nM
CCc1cc(CN2CC3CCC(C2)N3S(C)(=O)=O)ccc1-c1ccc(C(O)(C(F)(F)F)C(F)(F)F)cc1CC [Example 25, 2-(2,2′-diethyl-4′-((8-(methylsulfonyl)-3,8-diazabicyclo[3.2.1]octan-3-yl)methyl)-[1,1′-biphenyl]-4-yl)-1,1,1,3,3,3-hexafluoropropan-2-ol] | < 50 nM
Cc1cc(CN2CC3CCC(C2)N3Cc2ccncc2F)ccc1-c1ccc(C(O)(C(F)(F)F)C(F)(F)F)cc1 [Example 63, 1,1,1,3,3,3-hexafluoro-2-(4′-((8-((3-fluoropyridin-4-yl)methyl)-3,8-diazabicyclo[3.2.1]octan-3-yl)methyl)-2′-methyl-[1,1′-biphenyl]-4-yl)propan-2-ol] | 50 to 250 nM
CS(=O)(=O)N1C2CCC1CN(Cc1ccc(-c3ccc(C(O)(C(F)(F)F)C(F)(F)F)cc3)c(Cl)c1)C2 [Example 55, 2-(2′-chloro-4′-((8-(methylsulfonyl)-3,8-diazabicyclo[3.2.1]octan-3-yl)methyl)-[1,1′-biphenyl]-4-yl)-1,1,1,3,3,3-hexafluoropropan-2-ol] | 50 to 250 nM
CS(=O)(=O)N1C2CCC1CN(Cc1ccc(-c3ccc(C(O)(C(F)(F)F)C(F)(F)F)cc3)c(Br)c1)C2 [Example 40, 2-(2′-bromo-4′-((8-(methylsulfonyl)-3,8-diazabicyclo[3.2.1]octan-3-yl)methyl)-[1,1′-biphenyl]-4-yl)-1,1,1,3,3,3-hexafluoropropan-2-ol] | 50 to 250 nM
